Experimental data reported in patent US20110251379A1, “COMPOUNDS USEFUL FOR TREATING NEURODEGENERATIVE DISORDERS” (Satori Pharmaceuticals, Inc., priority 2010, published 2011).

System: amyloid-beta (1-42) peptide
Assay: ELISA assay of amyloid-beta (1-42) in conditioned media of 2B7 cells
Format: cell-based
Conditions: Aβ-42, 2B7 cells, 5 hours; read-out: IC50 range
How it was run: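 2B7 cells were treated with compounds for 5 hours at 37° C in media with 1% DMSO. Conditioned media, diluted 1:2 in blocking buffer, went into a sandwich ELISA with 6E10 capture and an HRP-labelled detection antibody, read by TMB at 450 nm. Values came from an Aβ peptide standard curve.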

Question: Which IC50 does the source give for `CCC(=O)OC(C1CC(C)C2C(O1)C(O)C1(C)C3CCC4C(C)(C)C(OC5OCC(O)C(O)C5O)CCC45CC35CCC21C)C(C)(C)O` (stereo not shown) here?
Answer: Its IC50 is no more than 1 µM.

Question: With `CNCC1CC(C)C2C(O1)C(O)C1(C)C3CCC4C(C)(C)C(OC5OCC(O)C(O)C5O)CCC45CC35CCC21C` (stereo not shown) as the compound, how does the IC50 read?
Answer: Its IC50 is greater than 10 µM.

Question: For `CC(=O)OC(C1CC(C)C2C(O1)C(O)C1(C)C3CCC4C(C)(CCC(O)C4(C)C)C3=CCC21C)C(C)(C)O` (stereo not shown), which IC50 is on record?
Answer: The IC50 was no more than 1 µM.

Question: For `CC(=O)OC(C1CC(C)C2C(O1)C(OC(N)=O)C1(C)C3CCC4C(C)(C)C(OC(N)=O)CCC45CC35CCC21C)C(C)(C)O` (stereo not shown), which IC50 is on record?
Answer: The IC50 was greater than 10 µM.

Question: `CC(=O)OC(C1CC(C)C2C(O1)C(OC(=O)C(F)(F)F)C1(C)C3CCC4C(C)(C)C(OC(=O)C(F)(F)F)CCC45CC35CCC21C)C(C)(C)O` (stereo not shown) was tested. Which IC50 did it give?
Answer: The IC50 was no more than 1 µM.

Question: For `CC(=O)OC(C1CC(C)C2C(O1)C(OC(=O)C(F)(F)F)C1(C)C3CCC4C(C)(C)C(O)CCC45CC35CCC21C)C(C)(C)O` (stereo not shown), which IC50 is on record?
Answer: The IC50 was no more than 1 µM.

Question: For `CC(=O)OC(C1CC(C)C2C(O1)C(OC(N)=O)C1(C)C3CCC4C(C)(C)C(O)CCC45CC35CCC21C)C(C)(C)O` (stereo not shown), which IC50 is on record?
Answer: The IC50 was greater than 10 µM.

Question: `CC(=O)OC(C1CC(C)C2C(O1)C(O)C1(C)C3CCC4C(C)(C)C(OC(=O)C5CCN5)CCC45CC35CCC21C)C(C)(C)O` (stereo not shown) was tested. Which IC50 did it give?
Answer: Its IC50 is no more than 1 µM.

Question: `CCN1CCOC(OC2CCC34CC35CCC3(C)C6C(C)CC(C(OC(C)=O)C(C)(C)O)OC6C(OC(C)=O)C3(C)C5CCC4C2(C)C)C1` (stereo not shown) was tested. Which IC50 did it give?
Answer: The IC50 was greater than 10 µM.

Question: `CC1CC(CNCc2ccccc2)OC2C1C1(C)CCC34CC35CCC(O)C(C)(C)C5CCC4C1(C)C2O` (stereo not shown) was tested. Which IC50 did it give?
Answer: The IC50 was greater than 10 µM.

Question: For `CC1CC(CNC(C)(C)C)OC2C1C1(C)CCC34CC35CCC(O)C(C)(C)C5CCC4C1(C)C2O` (stereo not shown), which IC50 is on record?
Answer: The IC50 was greater than 10 µM.

Question: With `CC1CC(CN(C)C)OC2C1C1(C)CCC34CC35CCC(O)C(C)(C)C5CCC4C1(C)C2O` (stereo not shown) as the compound, how does the IC50 read?
Answer: Its IC50 is greater than 10 µM.

Question: For `CC1CC(CNCC(F)(F)F)OC2C1C1(C)CCC34CC35CCC(O)C(C)(C)C5CCC4C1(C)C2O` (stereo not shown), which IC50 is on record?
Answer: The IC50 was greater than 10 µM.

Question: `C=C(C)C(OC(C)=O)C1CC(C)C2C(O1)C(O)C1(C)C3CCC4C(C)(C)C(OC5CN(CC(=O)N(C)C)CCO5)CCC45CC35CCC21C` (stereo not shown) was tested. Which IC50 did it give?
Answer: The IC50 was 1 to 10 µM.

Question: `CC(=O)N(CC1CC(C)C2C(O1)C(O)C1(C)C3CCC4C(C)(C)C(O)CCC45CC35CCC21C)C(C)(C)C` (stereo not shown) was tested. Which IC50 did it give?
Answer: The IC50 was less than 10 µM.

Question: With `CC(=O)N(C)CC1CC(C)C2C(O1)C(O)C1(C)C3CCC4C(C)(C)C(O)CCC45CC35CCC21C` (stereo not shown) as the compound, how does the IC50 read?
Answer: Its IC50 is greater than 10 µM.

Question: `CC(=O)N(CC1CC(C)C2C(O1)C(O)C1(C)C3CCC4C(C)(C)C(O)CCC45CC35CCC21C)CC(F)(F)F` (stereo not shown) was tested. Which IC50 did it give?
Answer: The IC50 was greater than 10 µM.

Question: For `COC(=O)C1CC(C)C2C(O1)C(O)C1(C)C3CCC4C(C)(C)C(O)CCC45CC35CCC21C` (stereo not shown), which IC50 is on record?
Answer: The IC50 was greater than 10 µM.

Question: `CC1CC(C(=O)NC2CCC2)OC2C1C1(C)CCC34CC35CCC(O)C(C)(C)C5CCC4C1(C)C2O` (stereo not shown) was tested. Which IC50 did it give?
Answer: The IC50 was greater than 10 µM.

Question: How did the IC50 turn out when `CC(=O)OC(C1CC(C)C2C(O1)C(O)C1(C)C3CCC4C(C)(C)C(OC(=O)C5(C)COC5)CCC45CC35CCC21C)C(C)(C)O` (stereo not shown) was run?
Answer: The IC50 was no more than 1 µM.

Question: How did the IC50 turn out when `CC1CC(C(O)C(C)(C)O)OC2C1C1(C)CCC34CC35CCC(OC3CN(C(=O)c6ccc(F)cc6)CCO3)C(C)(C)C5CCC4C1(C)C2O` (stereo not shown) was run?
Answer: Its IC50 is 1 to 10 µM.

Question: With `CC1CC(C(O)C(C)(C)O)OC2C1C1(C)CCC34CC35CCC(OC3CN(C(=O)c6ccccn6)CCO3)C(C)(C)C5CCC4C1(C)C2O` (stereo not shown) as the compound, how does the IC50 read?
Answer: The IC50 was greater than 10 µM.

Question: With `CC1CC(C(O)C(C)(C)O)OC2C1C1(C)CCC34CC35CCC(OC3CN(C(=O)CN(C)C)CCO3)C(C)(C)C5CCC4C1(C)C2O` (stereo not shown) as the compound, how does the IC50 read?
Answer: Its IC50 is 1 to 10 µM.

Question: For `CC1CC(C(O)C(C)(C)O)OC2C1C1(C)CCC34CC35CCC(OC3CN(C(=O)CN6CCCC6)CCO3)C(C)(C)C5CCC4C1(C)C2O` (stereo not shown), which IC50 is on record?
Answer: The IC50 was 1 to 10 µM.

Question: With `CC1CC(C(O)C(C)(C)O)OC2C1C1(C)CCC34CC35CCC(OC3CN(C(=O)C6CCN(C)CC6)CCO3)C(C)(C)C5CCC4C1(C)C2O` (stereo not shown) as the compound, how does the IC50 read?
Answer: Its IC50 is 1 to 10 µM.

Question: `CC1CC(C(O)C(C)(C)O)OC2C1C1(C)CCC34CC35CCC(OC3CN(C(=O)CC6CCCCC6)CCO3)C(C)(C)C5CCC4C1(C)C2O` (stereo not shown) was tested. Which IC50 did it give?
Answer: The IC50 was no more than 1 µM.

Question: For `CC1CC(C(O)C(C)(C)O)OC2C1C1(C)CCC34CC35CCC(OC3CN(C(=O)C6CCC6)CCO3)C(C)(C)C5CCC4C1(C)C2O` (stereo not shown), which IC50 is on record?
Answer: The IC50 was less than 10 µM.

Question: `CC1CC(CCC(=O)O)OC2C1C1(C)CCC34CC35CCC(OC3CN(C(=O)CC6CC6)CCO3)C(C)(C)C5CCC4C1(C)C2O` (stereo not shown) was tested. Which IC50 did it give?
Answer: The IC50 was 1 to 10 µM.
